Like-named read-outs stand apart in the source and are kept apart here.
Tests used:
Type in all cases: in vitro ADME
[1] = Metabolic stability in cryopreserved human hepatocytes; settings: human, cryopreserved human hepatocytes (pooled, suspension)
Description: Cryopreserved human hepatocytes (pooled suspension hepatocytes, Gibco) were thawed placing in a 37 °C shaking water bath according to the manufacturer’s specifications and resuspended in Williams E medium (WEM) to have 1 × 10^6 cells/mL. Samples with the test compound at 1 μM were incubated at 37 °C, and aliquots of 50 μL were collected at 0, 10, 30, 60, 120, and 240 min. The incubations were quenched 1:3 with ice-cold acetonitrile (containing 1 μM labetalol as the internal standard). Samples were then centrifuged at 12000 rpm for 5 min at 4 °C. The supernatant was concentrated by evaporation under a nitrogen stream and reconstituted with DMSO. Blank was prepared similarly but in the absence of the investigated compounds.
(§1) A Thermo Q-exactive mass spectrometer (Thermo Fisher Scientific, Waltham, MA) was used. The LC system, governed by Chromeleon X-press software, consists of a Binary pump, a thermostated autosampler, and a column compartment, all Dionex Ultimate 3000 series modules (Thermo Fisher Scientific, Waltham, MA). A volume of 2 μL was injected for each sample. Chromatographic separation of analytes was conducted in reverse-phase chromatography. In brief, a Luna Omega 1.6 μm Polar (C18, 2.1 mm × 150 mm) was used, and the mobile phases consisted of water (A) and acetonitrile (B), both containing formic acid at 0.1%. The LC flow was set at 0.400 mL/min in a 12 min gradient elution as follows: 99.5:0.5 (A/B) to 5:95 (A/B) over 10 min, 5:95 (A/B) for 2 min, and then reversion back to 99.5:0.5 (A/B) over 2.5 min. The column was operating at a constant temperature of 40 °C.

[2] = target: T1, human aldehyde oxidase (hAOX) in human liver cytosol (Homo sapiens, UniProt Q06278); experiment: Metabolism in human liver cytosol with/without hydralazine (hAOX); settings: for reactions observed in human liver cytosol: 30, 60, 90 min, absence and presence of hydralazine, both in the VHL ligand moiety; for hAOX percentage of substrate left at the final time point of analysis / hAOX t1/2: supplement CSV; for hAOX percentage of substrate left at the final time point of analysis: in brackets, final time point 90 min; for hAOX t1/2: human liver cytosol 1 mg/mL, up to 90 min
T1 construct: human aldehyde oxidase (hAOX), a cytosolic drug-metabolizing enzyme expressed in the human liver; tissue Gibco; host or cells: human liver cytosol
T1 sequence (Q06278 1-1338): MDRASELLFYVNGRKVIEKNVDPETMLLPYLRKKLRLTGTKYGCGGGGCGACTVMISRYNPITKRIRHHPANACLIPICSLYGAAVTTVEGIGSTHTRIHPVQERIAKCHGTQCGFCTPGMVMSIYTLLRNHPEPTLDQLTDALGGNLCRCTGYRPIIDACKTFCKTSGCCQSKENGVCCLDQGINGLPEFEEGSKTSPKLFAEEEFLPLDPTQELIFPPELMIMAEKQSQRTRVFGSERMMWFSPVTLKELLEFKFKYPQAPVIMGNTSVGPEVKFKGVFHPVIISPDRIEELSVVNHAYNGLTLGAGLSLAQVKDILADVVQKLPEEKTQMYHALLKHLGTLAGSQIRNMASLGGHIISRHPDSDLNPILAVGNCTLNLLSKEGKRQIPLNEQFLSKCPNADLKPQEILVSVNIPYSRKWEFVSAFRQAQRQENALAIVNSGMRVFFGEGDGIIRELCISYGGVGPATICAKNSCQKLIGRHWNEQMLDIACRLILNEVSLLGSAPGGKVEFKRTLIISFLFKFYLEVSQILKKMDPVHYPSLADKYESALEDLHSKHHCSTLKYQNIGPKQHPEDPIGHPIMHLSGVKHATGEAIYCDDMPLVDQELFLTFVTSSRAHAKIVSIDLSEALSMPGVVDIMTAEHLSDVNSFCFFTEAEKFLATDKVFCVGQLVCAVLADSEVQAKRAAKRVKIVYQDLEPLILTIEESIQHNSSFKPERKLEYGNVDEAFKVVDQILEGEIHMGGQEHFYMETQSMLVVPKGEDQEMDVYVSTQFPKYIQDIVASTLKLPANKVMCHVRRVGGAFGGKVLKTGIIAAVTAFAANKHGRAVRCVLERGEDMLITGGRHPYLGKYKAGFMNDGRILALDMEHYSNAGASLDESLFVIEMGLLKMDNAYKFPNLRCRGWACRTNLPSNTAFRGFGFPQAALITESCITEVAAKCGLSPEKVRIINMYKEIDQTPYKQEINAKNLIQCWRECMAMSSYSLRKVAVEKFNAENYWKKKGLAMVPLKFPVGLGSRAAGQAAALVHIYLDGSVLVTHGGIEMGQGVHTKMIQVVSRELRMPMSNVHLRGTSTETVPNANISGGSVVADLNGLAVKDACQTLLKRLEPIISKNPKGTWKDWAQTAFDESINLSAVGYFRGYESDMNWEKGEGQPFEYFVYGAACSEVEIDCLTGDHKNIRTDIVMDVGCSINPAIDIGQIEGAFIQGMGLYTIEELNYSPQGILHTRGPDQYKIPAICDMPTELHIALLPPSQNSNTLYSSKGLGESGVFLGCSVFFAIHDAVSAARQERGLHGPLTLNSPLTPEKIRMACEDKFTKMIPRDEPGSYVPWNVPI
Description: (§2) Metabolism of the selected compounds was evaluated upon incubation with human liver cytosol (Gibco) and supersome recombinant CYP isoforms 3A4 expressed in baculovirus-infected insect cells (Gibco). For metabolism in CYP3A4, test compounds (1 μM) were incubated in 0.1 M potassium phosphate buffer (pH 7.4) and allowed to equilibrate at 37 °C. Freshly prepared 25 mM nicotinamide adenine dinucleotide phosphate (NADPH, 1 mM final concentration) was added to the incubation mixture to start the reaction. For metabolism in human liver cytosol, reactions were initiated by adding test compounds (1 μM) to the mix reaction constituted by the human liver cytosol (1 mg/mL) prewarmed in potassium phosphate buffer (pH 7.4). […] In both procedures, aliquots (50 μL) of the incubation mix were removed at 0, 10, 20, 30, and 60 min (CYP3A4) or 0, 30, 60, and 90 min (human liver cytosol) and added to 50 μL of ice-cold acetonitrile quench solution (internal standard, 1 μM labetalol) to stop the reaction. Samples were then centrifuged at 12 000 rpm for 5 min at 4 °C. The supernatant was concentrated by evaporation under a nitrogen stream and reconstituted in DMSO. The blank was prepared similarly but in the absence of the investigated compounds. Samples were then analyzed by LC–MS/MS (see the Analytical procedure).
as §1

[3] = target: T2, aldehyde oxidase (hAOX, AOX1) (Homo sapiens, UniProt Q06278); experiment: as above; settings: human, human liver cytosol, pH 7.4; Figure 7A
T2 construct: human aldehyde oxidase (hAOX), a cytosolic drug-metabolizing enzyme expressed in the human liver; tissue Gibco; host or cells: human liver cytosol
T2 sequence (Q06278 1-1338): T1 sequence (Q06278 1-1338)
Description: as §2, §1

[4] = Table S1, PROTACs, cryopreserved human hepatocytes, read-out: t1/2
[5] = supplement CSV, human hepatocytes, read-out: HLH t1/2

Structure (SMILES) | half-life at 1 µM ([1]; Figures 3-5, cryopreserved human hepatocytes, read-out: half-life (t1/2)) [h] | half-life at 1 µM [1, 4] [h] | half-life at 1 µM [1, 5] [h] | reactions observed in human liver cytosol [2] | hAOX percentage of substrate left at the final time point of analysis [2] [%] | hAOX t1/2 [2] [h] | half-life at 1 µM [3] [h]
Cc1ncsc1-c1ccc([C@H](C)NC(=O)[C@@H]2C[C@@H](O)CN2C(=O)[C@@H](NC(=O)CCCCNC(=O)COc2c(-c3csc(N4CCOCC4)n3)ccc(F)c2F)C(C)(C)C)cc1 [Compound 33] | 1.24 | 1.24 | 1.24 | the hydrolysis of an amide and an oxidation | 83.5 | > 1.5 | > 1.5
Cc1ncsc1-c1ccc([C@H](C)NC(=O)[C@@H]2C[C@@H](O)CN2C(=O)[C@@H](NC(=O)CCCCN(C)C(=O)COc2c(-c3csc(N4CCOCC4)n3)ccc(F)c2F)C(C)(C)C)cc1 [Compound 34] | – | 1.43 | 1.43 | the hydrolysis of an amide and an oxidation | 83.4 | > 1.5 | > 1.5

Source: paper PMC8015227, “Understanding the Metabolism of Proteolysis Targeting Chimeras (PROTACs): The Next Step toward Pharmaceutical Applications” (Journal of Medicinal Chemistry, 2020)
